The text below walks through data of US7700375B2, “Fluorescent labeling of specific protein targets in vitro and in vivo” (Valorisation-Recherche, LP, priority 2004, dated 2010).

Data set [1] can be described thus: Fluorescence spectral properties of fluorogens and their ethanethiol adducts. Format: physicochemical. The conditions noted are these: for φ (quantum yield): rapid approximation method of reference 34. The procedure:
For the application of this fluorogenic reaction to the detection of thiols and dithiols, two important criteria are the fluorescence intensity of the thiol addition product and the ratio of its fluorescence compared to its parent fluorogen. We studied the effect of electron withdrawing and donating substituants on these criteria by preparing the derivatives of fluorogen 4 shown in Scheme 1. Fluorogen 5, bearing an electron withdrawing ester group, was prepared according to a protocol similar to that used for fluorogen 4, but using an ester-substituted maleic anhydride derived by oxidation of dimethyl L-tartrate according to a published procedure.^31 Fluorogen 6 bears an electron donating methyl group and was obtained in similar yield by adaptation of the standard literature protocol,^25 using citraconic anhydride. The reaction of 5 and 6 with ethanethiol in DMSO led to the formation of thiol adducts 8 and 9, whose fluorescence was characterized as shown in Table 1. Even from this small series, certain tendencies are apparent. Increasing the electron donating capacity of the substituent appears to have a significant effect on the absorbance maximum corresponding to the wavelength of excitation, increasing by 37 nm from 8 to 9. Although the emission wavelength increases very slightly over the same series, the net effect on the Stokes shift is a significant decrease with increasing electron donating capacity of the substituent.
(§1) Comparison of the fluorescent properties^34 of the four different parent fluorogens (and their corresponding thiol adducts) studied herein (see Table 2) substantiates our retention of compounds 13 and 20 as candidates for further tests with proteins.
The following material were obtained from Aldrich and were used without further purification: 2-hydroxy-5-nitrobenzaldehyde, N-acetylglycine, maleic anhydride, p-nitrophenylacetic acid, L-aspartic acid dimethyl ester hydrochloride, citraconic anhydride, dimethyl L-tartrate, dimethyl malonate. All reactions were carried out under an atmosphere of dry nitrogen employing conventional bench-top techniques except for reactions with thiols. ^13C-NMR and ^1H-NMR spectra were recorded on AMXR400 or AMX300 spectrometers and were referenced to the residual proton or ^13C signal of the solvent. Mass spectra were determined by FAB+ ionization on an AutoSpecQ spectrometer at the Regional Mass Spectrometry Centre at the Université de Montréal. Infrared spectra were recorded on a Perkin-Elmer (FTIR) spectrometer. Melting points (uncorrected) were determined on a Unimelt Tomas-Hoover or on a Gallenkamp meting point apparatus. Fluorescence spectra were recorded using a Varian Cary Eclipse fluorimeter and gel electrophoresis was carried out on a SpectraPhoresis 100 apparatus.

Data set [2] in a line: Temperature dependence of first-order rate constants of ethanethiol addition. The conditions noted are these: 0.1 mM fluorogen, 2.0 mM ethanethiol in DMF, 10-40° C. Here is the method:
First-order rate constants for the reaction of 0.1 mM 13 with 2.0 mM ethanethiol in DMF were also measured as a function of temperature from 10-40° C. Over this temperature range, the observed rate constants increased slightly with temperature, but varied by less than a factor of 2, and evaporation of ethanethiol was problematic at 40° C. For these reasons, precise quantitative analysis of the effect of temperature (for example, in the form of an Eyring plot) was not possible.

Data set [3] addresses diCys-Fos (Homo sapiens, UniProt P01100, C204S/L161C). The experiment in a line: Protein labeling in vitro, SDS-PAGE with UV illumination. The conditions noted are these: 0.242 mM protein, 0.5 mM of 20 or 0.05 mM of 13, 25° C. overnight. More on the design: the C99S mutant of a fragment of Fos. Format: biochemical. Here is the method:
(§2) As mentioned in the introduction, an α-helical protein was designed to bear two cysteine residues, separated by a distance complementary to that between the maleimide groups of the designated fluorogen. The protein chosen as a starting point for this design was the C99S mutant of a fragment of Fos,^21 a known α-helical protein^22 whose recombinant expression has been published.^23 Site-directed mutagenesis was then performed^20,35 to introduce a cysteine residue (L56C), separated by two turns of the α-helical motif from the native Cys49, positioning the protein's only two thiol groups approximately 10 Å apart.^36 Although at higher concentrations, Fos is known to form a homodimer,^22 the distance between the intermolecular cysteine residues in this putative homodimer would render their reaction with a single fluorogen molecule impossible. […]
(§3) Purified mCys-Fos and diCys-Fos were then tested in vitro for their ability to react with fluorogens 13 and 20. After incubation of 0.242 mM protein with 0.5 mM of 20 or 0.05 mM of 13 at 25° C. overnight, glycerol was added and the reaction mixtures were analyzed by SDS-PAGE using UV illumination and then Coomassie blue staining. […]

The target in data set [4] is T1, mCys-Fos (Homo sapiens, UniProt P01100, C204S).
T1 construct: the C99S mutant of a fragment of Fos; His-tag (N); made in house; host or cells: XL1-blue E. coli
Described as above. It is filed as biochemical. The conditions noted are these: 0.242 mM protein, 0.5 mM of 20 or 0.05 mM of 13, 25° C. overnight. The procedure:
as §2, §3

Data set [5] is described as follows: Product study of reaction with 3-mercaptopropionic acid by capillary electrophoresis. The conditions noted are these: up to 2 equivalents of 3-mercaptopropionic acid; CE. The text has this:
Product studies carried out for the reaction of 4 with simple thiols support the hypothesis that the second addition reaction is faster than the first. Initial experiments involved the addition of ethanethiol to 4 and attempts to separate and characterize the dithiolated and monothiolated adducts. However, no significant peak corresponding to the putative monothiolated adduct could be isolated by flash chromatography, so an experiment was designed to facilitate the separation of the monothiolated and dithiolated adducts by capillary electrophoresis (CE, see Experimental Section). By using 3-mercaptopropionic acid as a simple thiol, we ensured that at basic pH, any monothiolated adduct would singly negatively charged, due to ionization of the carboxylate group, whereas the dithiolated product would be doubly negatively charged.
After reaction of 1 mM 1 with 0.25-3 mM 3-mercaptopropionic acid in DMSO-H2O 1.9 overnight, the fluorescence of the reaction mixture was measured. To this mixture was then added 3 equivalents of ethanethiol, converting all unreacted and monothiolated adducts to dithiolated adducts. […] Their relative concentrations were calculated by the areas under their peaks, recorded UV detection at 370 nm. […]

Data set [6] can be described thus: Thiol addition reaction of fluorogens with ethanethiol (fluorescence increase). The text has this:
The fluorescence spectra obtained upon excitation at 350 nm before and after the reaction of ethanethiol with compound 4 are shown in FIG. 1.
Based on this observation, we reasoned that compounds 4 and 13 should also react efficiently with one equivalent of a dithiol bearing two sulfhydryl groups separated by an appropriate distance. […] That is, after fluorogen 4 undergoes an initial addition reaction with BMMB, the second addition reaction with the pendant sulfhydryl group of BMMB is intramolecular and presumably much faster (Scheme 5).
[formula] […] In the case of dithiol addition, this second addition reaction with a sulfhydryl group would be intramolecular, and presumably even faster.

Data set [7] is described as follows: Solubility. Format: physicochemical. The procedure:
as §1
Finally, we wished to determine if fluorogens such as 13 and 20 were cytotoxic. […] Furthermore, even at 300 μM 20, the limit of its solubility in cell culture, 70% of COS cells were still viable (FIG. 8). […] The convenience of the application of this fluorescent labeling method is obvious from the low cytoxocity of 20, even at concentrations 30 times greater than those necessary for efficient labeling.

Where [8] appears, read: in DMSO, ratio of areas under fluorescence emission bands of fluorogen and its thiol adduct.

Chain of diCys-Fos (P01100 118-211 L161C/C204S limits assumed): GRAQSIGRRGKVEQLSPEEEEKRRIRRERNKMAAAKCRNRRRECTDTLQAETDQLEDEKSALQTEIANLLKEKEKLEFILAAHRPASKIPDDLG
T1 sequence (P01100 118-211 C204S limits assumed): as the sequence (P01100 118-211 L161C/C204S limits assumed) above, with C44L counted along it

Take `CCSC1C(=O)N(c2ccc3oc(=O)c(N4C(=O)C(C)C(SCC)C4=O)cc3c2)C(=O)C1C` (centres unmarked) [Compound 9, 3,6-Di-(3′-ethylthio-4′-methylsuccinimidyl)chromen-2-one]: in data set [1] (in DMSO), the Stokes shift is reported as 82 nm and the λexc is 373 nm.

Regarding `CC1=CC(=O)N(c2ccc3oc(=O)c(N4C(=O)C=C(C)C4=O)cc3c2)C1=O` [Compound 6, 3,6-Di-(3′-methylmaleimidyl)chromen-2-one], in data set [1] (in DMSO), the Stokes shift was 82 nm; the “λem (emission band)” value is reported as 370-600 nm; the “λem, wavelength corresponding to center of Full Width at Half Maximum of emission band” value (“λem, wavelength corresponding to center” for short) is on record as 455 nm; the λexc is 373 nm. Further, the “IF Ratio” value in data set [1] (setting [8]) was 3.6.

Consider `COC(=O)C1=CC(=O)N(c2ccc3oc(=O)c(N4C(=O)C=C(C(=O)OC)C4=O)cc3c2)C1=O` [Compound 5, 3,6-Di-(3′-methoxycarbonylmaleimidyl)chromen-2-one], for which, in data set [1] (in DMSO), the Stokes shift amounted to 115 nm; the “λem (emission band)” value is recorded as 360-600 nm; the “λem, wavelength corresponding to center” value turned out to be 447 nm; the λexc stood at 332 nm. Further, the “IF Ratio” value in data set [1] (setting [8]) came to 2.7.

Take `CCSC1CC(=O)N(c2cc3c4c(cc(N5C(=O)CC(SCC)C5=O)cc4c2)C(=O)N([C@@H](CC(=O)OC)C(=O)OC)C3=O)C1=O` (stereo partly drawn) [Compound 21, N-(3,6-Di(3′-ethylthiosuccinimidyl)-1,8-naphthalyl)-L-aspartic acid dimethyl ester]: in data set [1] (10:90 DMSO: water), the Stokes shift turned out to be 67 nm and the λexc is 511 nm. In data set [1] (adduct vs parent fluorogen (16 in DMSO)), the “fluorescence of ethanethiol adduct relative to parent fluorogen (factor)” value turned out to be 8.5. In data set [1] (ethanethiol adduct), the “detectability of adduct fluorescence” value is “easily detected at micromolar concentrations”.

In the case of `O=C1C=CC(=O)N1c1ccc2oc(=O)c(N3C(=O)C=CC3=O)cc2c1` [Compound 4, 3,6-Dimaleimidylchromen-2-one], the melting point (in general, the temperature, or range, at which the solid turns liquid) is > 296 °C (dec.).

For the molecule `CCSC1C(=O)N(c2ccc3oc(=O)c(N4C(=O)C(SCC)C(C(=O)OC)C4=O)cc3c2)C(=O)C1C(=O)OC` (centres unmarked) [Compound 8, 3,6-Di-(3′-ethylthio-4′-methoxycarbonylsuccinimidyl)chromen-2-one], in data set [1] (in DMSO), the Stokes shift came to 121 nm and the λexc was found to be 336 nm.

Turning to `CCSC1CC(=O)N(c2ccc(-c3cc4cc(N5C(=O)CC(SCC)C5=O)ccc4oc3=O)cc2)C1=O` (centres unmarked) [Compound 14, 6-(3′-Ethylthiosuccinimidyl)-3-p-(3′-ethylthiosuccinimidyl)phenylchromen-2-one], in data set [1] (10:90 DMSO: water), the Stokes shift stood at 76 nm, the λexc came to 384 nm and the “φ (quantum yield)” value is reported as 0.223.

As to `O=C1C=CC(=O)N1c1ccc(-c2cc3cc(N4C(=O)C=CC4=O)ccc3oc2=O)cc1` [Compound 13, 6-Maleimidyl-3-p-maleimidylphenylchromen-2-one], the “variation of observed first-order rate constants with temperature (factor)” value in data set [2] is under 2. Besides, in data set [1] (10:90 DMSO: water), the Stokes shift turned out to be 76 nm; the “λem (emission band)” value was 400-550 nm; the “λem, wavelength corresponding to center” value is reported as 460 nm; the λexc worked out at 384 nm. Further, the “φ (quantum yield)” value in data set [1] (10:90 DMSO: water) stood at 0.006. Further, in data set [1] (10:90 DMSO: water, ratio of areas under emission bands of fluorogen and thiol adduct), the “IF Ratio” value stood at 5.2. The “fluorescent labeling of diCys-Fos” value in data set [3] is recorded as “efficiently fluorescently labeled”. Further, in data set [4], the “fluorescent labeling of mCys-Fos” value is listed as “is not”. Besides, the “formation of monothiolated adduct” value in data set [5] is listed as “no monothiolated product was detectable”. The “change in fluorescence on addition of ethanethiol” value in data set [6] (3 mM ethanethiol, 1 mM fluorogen, 9:1 H2O:DMSO, over 3 hours) is given as “marked increase in fluorescence”. For the same molecule, in data set [6] (ethanethiol), the “equivalents of thiol at which fluorescence plateau was reached” value is about 2.2 equivalents.

For `O=C1C=CC(=O)N1c1cccc2c(N3C(=O)C=CC3=O)cccc12` [Compound 15, 1,5-Dimaleimidylnaphthalene], in data set [7], the “solubility in water / aqueous DMSO” value was “insoluble in water, even upon the addition of up to 10% DMSO”. Further, in data set [1] (neat DMSO), the Stokes shift is recorded as 63 nm; the “λem (emission band)” value is on record as 340-500 nm; the “λem, wavelength corresponding to center” value turned out to be 391 nm; the λexc was determined as 328 nm. Further, in data set [1] (neat DMSO), the “φ (quantum yield)” value is recorded as 1.70 × 10^−3. Further, in data set [1] (neat DMSO, ratio of areas under emission bands of fluorogen and thiol adduct), the “IF Ratio” value is listed as 31.
